Source: patent publication US20030100769A1, “Cyclic amidine compounds” (priority 2000, published 2003)

What was measured:
[1] = biological target: T1, α4β2 subtype of nicotinic acetylcholine receptors (Rattus norvegicus, UniProt P09483+P12390); assay: Binding assay at α4β2 subtype of nicotinic acetylcholine receptors ([3H]-cytisine, rat brain membrane)
T1 construct: examined using rat brain membrane obtained from whole homogenized brain; from tissue; host or cells: rat whole brain membranes (Fischer-344 male rats)
T1 sequence (P09483 31-630): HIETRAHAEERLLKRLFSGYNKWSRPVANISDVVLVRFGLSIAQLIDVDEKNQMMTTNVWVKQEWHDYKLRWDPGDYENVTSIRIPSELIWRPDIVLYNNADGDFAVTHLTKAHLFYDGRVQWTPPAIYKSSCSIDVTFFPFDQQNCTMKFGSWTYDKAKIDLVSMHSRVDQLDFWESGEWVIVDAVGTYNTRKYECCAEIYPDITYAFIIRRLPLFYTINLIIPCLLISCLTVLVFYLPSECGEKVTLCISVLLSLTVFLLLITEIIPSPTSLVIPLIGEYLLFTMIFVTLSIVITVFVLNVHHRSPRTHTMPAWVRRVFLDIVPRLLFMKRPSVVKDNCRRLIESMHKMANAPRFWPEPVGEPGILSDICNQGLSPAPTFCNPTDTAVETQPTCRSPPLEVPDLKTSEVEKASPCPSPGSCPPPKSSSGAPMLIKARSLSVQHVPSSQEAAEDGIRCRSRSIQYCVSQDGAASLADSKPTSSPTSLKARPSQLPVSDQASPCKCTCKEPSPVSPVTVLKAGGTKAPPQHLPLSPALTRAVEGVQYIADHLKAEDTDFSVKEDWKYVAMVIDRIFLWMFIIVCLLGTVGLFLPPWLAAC
T1 sequence (P12390 25-500): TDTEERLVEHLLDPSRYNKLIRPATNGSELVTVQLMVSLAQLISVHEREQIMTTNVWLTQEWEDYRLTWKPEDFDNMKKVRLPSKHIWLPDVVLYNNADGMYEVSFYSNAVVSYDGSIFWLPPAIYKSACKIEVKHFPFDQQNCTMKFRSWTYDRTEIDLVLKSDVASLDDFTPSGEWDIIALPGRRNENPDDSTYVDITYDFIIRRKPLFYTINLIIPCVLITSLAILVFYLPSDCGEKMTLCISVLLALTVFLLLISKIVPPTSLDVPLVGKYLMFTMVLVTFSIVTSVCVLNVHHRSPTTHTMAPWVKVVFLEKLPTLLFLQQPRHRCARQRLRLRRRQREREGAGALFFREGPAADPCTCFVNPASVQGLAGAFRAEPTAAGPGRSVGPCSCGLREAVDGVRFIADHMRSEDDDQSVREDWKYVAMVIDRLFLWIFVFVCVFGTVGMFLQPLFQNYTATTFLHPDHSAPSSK
Source text: (§1) The methods for evaluating the binding capabilities of the compounds at nicotinic acetylcholine receptors are different by subtypes of receptors. The binding capabilities of the compounds at α4β2 nicotinic acetylcholine receptors are examined using rat brain membrane obtained from whole homogenized brain, and determining the inhibiting rate of the compounds against [^3H]-cytisine binding to said brain membrane. Furthermore, the binding capabilities of the compounds at α1β1γδ nicotinic acetylcholine receptors are examined using homogenized rat muscle, and determining the inhibiting rate of the compounds against [^3H]-α-bungarotoxin binding to said muscle homogenate.
Binding Assays at α4β2 Subtype of Nicotinic Acetylcholine Receptors
(1) Preparation of Rat Brain Membrane Containing α4β2 Subtype of Nicotinic Acetylcholine Receptors
Rats were housed in the breeding cage controlled of the room temperature at 23±1° C., and the humidity of 55±5% for 1 to 4 weeks. Rats (3 to 4 rats per a cage) were housed with lights on for 12 hours daily (from 7:00 to 19:00), and allowed free access to food and water.
Preparation of rat brain membrane containing α4β2 subtype of nicotinic acetylcholine receptors was performed as follow. That is, rat brains were isolated just after sacrificed by decapitation, washed with ice-cooled saline solution and then frozen at −80° C. with liquid nitrogen and stored till using. After thawing the frozen brain, the brain was homogenized in 10 volumes of ice-cooled buffer solution (50 mM of Tris-HCl, 120 mM of NaCl, 5 mM of KCl, 1 mM of MgCl2, 2 mM of CaCl2; pH 7.4; 4° C.) using homogenizer (HG30, Hitachi Kohki Ltd.) for 30 seconds, and the homogenate were centrifuged under 1,000×G for 10 minutes at 4° C. The resulting supernatant was separated and the pellet was homogenized again with half volume of aforementioned prior buffer solution and centrifuged under the same conditions. Combined supernatant was further centrifuged under 40,000×G for 20 minutes at 4° C. The pellet was suspended in buffer solution and used for binding assays at receptors.
(2) Experiments of α4β2 Subtype of Nicotinic Acetylcholine Receptors Binding
Suspensions of membrane pellets containing 400-600 μg of protein were added to test tubes containing test compounds and [^3H]-cytisine (2 nM) in a final volume of 200 μl and incubated for 75 minutes in ice-cooled bath. The samples were isolated by vacuum filtration onto Whatman GF/B filters, which were prerinsed with 0.5% polyethylenimine just prior to sample filtration, using Brandel multi manifold cell harvester. The filters were rapidly washed with buffer solution (3×1 ml). The filters were counted in 3 ml of clearsol I (Nacalai Tesque Inc.).
The analyses of the experimental results were conducted by using the Accufit Competition Program (Beckman Ltd.).

[2] = biological target: α1β1γδ subtype of nicotinic acetylcholine receptors (Rattus norvegicus, UniProt P18916+P25108+P25109+P25110); assay: biochemical; assay type: binding
α1β1γδ subtype of nicotinic acetylcholine receptors, sequence (P25109 24-501): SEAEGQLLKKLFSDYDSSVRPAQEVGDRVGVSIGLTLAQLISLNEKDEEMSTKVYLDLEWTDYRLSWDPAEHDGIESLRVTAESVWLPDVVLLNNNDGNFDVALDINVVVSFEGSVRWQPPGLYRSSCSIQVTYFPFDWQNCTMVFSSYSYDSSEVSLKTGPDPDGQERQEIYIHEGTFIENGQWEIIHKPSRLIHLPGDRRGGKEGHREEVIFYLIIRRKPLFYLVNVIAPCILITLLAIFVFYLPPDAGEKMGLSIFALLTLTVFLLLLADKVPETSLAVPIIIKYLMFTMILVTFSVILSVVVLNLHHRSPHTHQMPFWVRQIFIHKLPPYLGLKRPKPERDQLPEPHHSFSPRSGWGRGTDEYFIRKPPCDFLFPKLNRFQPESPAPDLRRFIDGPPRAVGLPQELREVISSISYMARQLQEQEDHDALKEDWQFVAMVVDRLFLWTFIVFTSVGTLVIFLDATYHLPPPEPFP
α1β1γδ subtype of nicotinic acetylcholine receptors, sequence (P25110 22-517): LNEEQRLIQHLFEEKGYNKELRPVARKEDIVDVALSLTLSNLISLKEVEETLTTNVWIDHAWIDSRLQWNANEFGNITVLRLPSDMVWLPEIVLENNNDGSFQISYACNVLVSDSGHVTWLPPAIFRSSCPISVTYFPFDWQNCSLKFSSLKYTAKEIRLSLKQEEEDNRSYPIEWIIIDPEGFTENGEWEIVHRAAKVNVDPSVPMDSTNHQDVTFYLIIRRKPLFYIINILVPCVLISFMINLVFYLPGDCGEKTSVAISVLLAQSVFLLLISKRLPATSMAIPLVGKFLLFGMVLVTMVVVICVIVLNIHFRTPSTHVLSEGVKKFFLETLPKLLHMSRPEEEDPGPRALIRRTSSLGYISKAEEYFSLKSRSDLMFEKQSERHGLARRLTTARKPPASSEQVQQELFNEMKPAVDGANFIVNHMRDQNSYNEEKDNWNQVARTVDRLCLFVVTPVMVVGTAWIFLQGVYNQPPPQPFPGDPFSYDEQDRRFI
α1β1γδ subtype of nicotinic acetylcholine receptors, sequence (P25108 21-457): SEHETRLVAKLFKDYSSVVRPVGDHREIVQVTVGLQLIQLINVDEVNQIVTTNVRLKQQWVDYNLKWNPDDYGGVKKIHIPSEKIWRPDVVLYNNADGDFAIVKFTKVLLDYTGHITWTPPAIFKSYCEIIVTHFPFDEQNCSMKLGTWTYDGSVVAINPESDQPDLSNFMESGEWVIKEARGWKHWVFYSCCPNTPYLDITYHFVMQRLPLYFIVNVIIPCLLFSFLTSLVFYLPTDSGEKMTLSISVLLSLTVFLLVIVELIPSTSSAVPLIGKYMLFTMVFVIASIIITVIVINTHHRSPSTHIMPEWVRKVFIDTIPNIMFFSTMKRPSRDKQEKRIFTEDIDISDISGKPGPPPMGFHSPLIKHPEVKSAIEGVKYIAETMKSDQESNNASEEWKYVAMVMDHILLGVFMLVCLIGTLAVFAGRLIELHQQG
Source text: as §1
Binding Assays at α1β1γδ Subtype of Nicotinic Acetylcholine Receptors
The affinity of the compounds of the present invention to α1β1γδ subtype of nicotinic acetylcholine receptors was measured by the following method, which was modified method described by Garcha H. S., Thomas P., Spivak C.
(1) Preparation of Rat Skeletal Muscles Containing α1β1γδ Subtype of Nicotinic Acetylcholine Receptors
The substantially same animals described in the Biological Experiment 1 were used.
The isolation of α1β1γδ subtype of nicotinic acetylcholine receptors was performed as follow. That is, rat posterior skeletal muscles were isolated just after sacrificed by decapitation, washed with ice-cooled saline solution and then frozen at −80° C. with liquid nitrogen and stored till using. After thawing the frozen muscles, tissue was homogenized ([…]) with buffer solution [2.5 mM of sodium phosphate buffer (pH:7.2), 90 mM of NaCl, 2 mM of KCl, 1 mM of EDTA, 2 mM of benzamidine, 0.1 mM of benzethonium chloride, 0.1 mM of PMSF, 0.01% of sodium azide] in Waring blender (Waring blender 34BL97; WARING PRODUCTS DIVISION DYNAMICS CORPORATION OF AMERICA) for 60 seconds. The homogenate were centrifuged under 20,000×G for 60 minutes at 4° C. The supernatant was separated and the resulting pellet was added to the same buffer (1.5 ml/g wet weight), and homogenized under the same conditions. Triton X100 (2% w/v) was added and the mixture was stirred for 3 hours at 4° C. The centrifugation at 100,000×G for 60 minutes at 4° C. yielded the rat muscle extract as supernatant. This was stored at 4° C. for up to 4 weeks, and used for binding assays at receptors.
(2) Experiments of α1β1γδ Subtype of Nicotinic Acetylcholine Receptors Binding
Receptors binding experiments were performed as follow. That is, the extract of rat muscle containing 600-900 μg of protein was added to test tubes containing test compounds and incubated for 15 minutes at 37° C. Then, to this mixture was added 1 nM of [^3H]-α-bungarotoxin (α-Bgt) and further incubated for 2 hours. The samples were isolated by vacuum filtration onto Whatman GF/B filters, which were prerinsed with 0.5% polyethylenimine just prior to sample filtration, using Brandel multi manifold cell harvester. The filters were rapidly rinsed with washing solution (10 mM of KH2PO4, 150 mM of NaCl, pH 7.2, room temperature) (5×1 ml). The filters were counted in 3 ml of clearsol I (Nacalai Tesque Inc.). The determination of nonspecific binding was incubated in the presence of 1 μM α-Bgt. […] In the receptor binding experiments, said buffer solution was added for adjusting the final concentration of BSA to be 0.05%.
The analyses of the experimental results were conducted by the same way as described in the Biological Experiment 1.

[3] = biological target: T2, human α4β2 subtype of nicotinic acetylcholine receptors (Homo sapiens, UniProt P17787+P43681); assay: Agonist activities at human α4β2 subtype of nicotinic acetylcholine receptors expressed in Xenopus oocytes (membrane potential holding method); assay type: cell-based; details: 100 μM test compound, relative to 10 μM acetylcholine (100%)
T2 construct: expressed in transfected cells; host or cells: Xenopus laevis oocytes injected with hnACh-R α4 and β2 cRNA (pSP64 polyA)
T2 sequence (P43681 29-627 limits assumed): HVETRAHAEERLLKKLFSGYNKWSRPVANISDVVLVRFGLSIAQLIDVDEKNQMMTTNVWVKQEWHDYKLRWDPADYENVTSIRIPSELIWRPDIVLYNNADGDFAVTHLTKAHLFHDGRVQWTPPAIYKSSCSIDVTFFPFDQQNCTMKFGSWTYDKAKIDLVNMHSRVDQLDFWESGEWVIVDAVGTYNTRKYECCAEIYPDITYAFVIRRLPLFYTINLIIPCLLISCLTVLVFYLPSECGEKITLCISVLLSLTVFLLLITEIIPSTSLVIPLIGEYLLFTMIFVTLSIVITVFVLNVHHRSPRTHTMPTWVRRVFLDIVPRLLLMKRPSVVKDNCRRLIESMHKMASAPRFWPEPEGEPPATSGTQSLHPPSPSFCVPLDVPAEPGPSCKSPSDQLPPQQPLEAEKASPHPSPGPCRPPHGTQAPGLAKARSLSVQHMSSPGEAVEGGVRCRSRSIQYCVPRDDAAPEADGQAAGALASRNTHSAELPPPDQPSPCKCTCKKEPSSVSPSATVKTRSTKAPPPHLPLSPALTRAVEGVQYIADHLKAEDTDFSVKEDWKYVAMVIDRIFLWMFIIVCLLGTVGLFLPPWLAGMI
T2 sequence (P17787 26-502): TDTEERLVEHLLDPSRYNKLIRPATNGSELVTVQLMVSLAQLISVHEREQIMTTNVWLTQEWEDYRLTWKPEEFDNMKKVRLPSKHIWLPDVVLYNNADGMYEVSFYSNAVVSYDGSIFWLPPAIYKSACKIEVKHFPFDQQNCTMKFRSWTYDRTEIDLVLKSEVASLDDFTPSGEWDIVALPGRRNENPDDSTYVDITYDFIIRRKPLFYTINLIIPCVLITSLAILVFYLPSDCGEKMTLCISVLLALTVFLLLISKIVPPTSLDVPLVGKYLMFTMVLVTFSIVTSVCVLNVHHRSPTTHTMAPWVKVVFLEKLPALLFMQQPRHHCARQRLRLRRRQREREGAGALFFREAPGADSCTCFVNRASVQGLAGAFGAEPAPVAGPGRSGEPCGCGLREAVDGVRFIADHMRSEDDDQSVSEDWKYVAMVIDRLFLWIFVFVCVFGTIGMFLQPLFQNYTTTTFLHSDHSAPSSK
Experimental: The agonist effect in human α4β2 subtype of nicotinic acetylcholine receptors are examined by using human nicotinic acetylcholine receptors prepared in oocytes of Xenopus laevis, which is injected with cRNA from the corresponding cloning cDNA of human α4 and β2 subunits of nicotinic acetylcholine receptors, and to measure the expression of the electric response by adding the test compounds to perfusion solution by means of membrane potential holding method.
Agonist Activities at Human α4β2 Subtype of Nicotinic Acetylcholine Receptors
(1) Preparation of cRNA of Human α4β2 Subtype of Nicotinic Acetylcholine Receptors
The obtained hnACh-R α4 cDNA and hnACh-R β2 cDNA were inserted to the cRNA expression vector (pSP64 polyA) having SP6 RNA promoter to construct hnACh-R α4/pSP64 polyA and hnACh-R β2/pSP64 polyA, respectively. After cutting from expression vector by restriction enzyme (EcoRI), transcription was performed by affecting SP6 RNA polymerase in the presence of cap analogues to obtain hnACh-R α4 cRNA and hnACh-R β2 cRNA, respectively.
(2) Expression of Human α4β2 Subtype Nicotinic Acetylcholine Receptors in Xenopus Oocytes
Oocytes were purchased from Kitanihonseibutsukyohzai Co., Ltd., which were already enucleated from Xenopus laevis, and used in this experiment.
The oocytes were treated with collagenase (Sigma type I; 1 mg/ml) in calcium-free modified Birth's solution (88 mM of NaCl, 1 mM of KCl, 2.4 mM of NaHCO3, 0.82 mM of MgSO4, 15 mM of HEPES, pH 7.6) under gently stirring at room temperature for 90 minutes, and washed out the enzyme from the tissue. Then, oocytes were separated from ovarian follicle by tweezers, and isolated oocytes were placed in antibiotics containing modified Birth's solution (88 mM of NaCl, 1 mM of KCl, 2.4 mM of NaHCO3, 0.82 mM of MgSO4, 15 mM of HEPES, pH 7.6, and 0.1 v/v % of mixture solution containing of penicillin and streptomycin for incubation; Sigma Co.). […] In oocytes, heterogeneous quintuple [(α4)2(β2)3] was composed by translation of injected cRNAs, and ion channel receptors were constructed on cell membrane.
(3) Agonist Activities at Human α4β2 Subtype of Nicotinic Acetylcholine Receptors
The recordings of responses at human α4β2 subtype of nicotinic acetylcholine receptors by means of membrane potential holding method were performed as follow. […] Test compounds were added to the perfusion solution, and recorded the peak strength of induced inward current. In order to normalize the responses of test compounds, the responses with acetylcholine (Ach) were recorded before and after application of the test compounds. Generally in the oocytes just after isolated, the response of intrinsic muscarinic acetylcholine receptors, which is inward current caused by activation of calcium dependence chloride ion channels with increase of the intracellular calcium concentration by stimulation of receptors, is observed. […] Therefore, the responses observed in oocytes with injection of hnACh-R α4 cRNA and hnACh-R β2 cRNA, i.e., the inward current induced by the intracellular influx of sodium ion according to the stimulation of receptors, would be the freshly observed responses of human α4β2 subtype nicotinic acetylcholine receptors.

With `Clc1ccc(CN2C=NCCC2)cn1` [Compound 27, 1-(6-chloro-3-pyridyl)methyl-1,4,5,6-tetrahydropyrimidine] the Ki [1] was 0.002 µM, the Ki [2] was 45 µM and the “Agonist activity: control % by response at 100 μM of the test compound” value (from here on “Agonist activity: control % by response”) [3] was “(18.0%)”.

With `Cc1ccc(CC2=NCCN2)cn1` [Compound 45, 2-(6-methyl-3-pyridyl)methyl-2-imidazoline] the “Agonist activity: control % by response” value [3] was “(12.0%)”.

`Cc1ccc(CN2C=NCCC2)cn1` [Compound 57, 1-(6-methyl-3-pyridyl)methyl-1,4,5,6-tetrahydropyrimidine] was tested, and the Ki [1] was 0.012 µM, the Ki [2] was 86 µM and the “Agonist activity: control % by response” value [3] was “(9.1%)”.

With `C1=NCCCN1Cc1cccnc1` [Compound 58, 1-(3-pyridyl)methyl-1,4,5,6-tetrahydropyrimidine] the Ki [1] was 0.0069 µM, the Ki [2] was 32 µM and the “Agonist activity: control % by response” value [3] was “(27.9%)”.

In the case of `CC1=NCCN1CCc1ccc(Cl)nc1` [Compound 62, 1-[2-(6-chloro-3-pyridyl)ethyl]-2-methyl-2-imidazoline], the Ki [1] is reported as 0.07 µM, the Ki [2] is reported as 639 µM and the “Agonist activity: control % by response” value [3] is reported as “(9.6%)”.
